Measurements taken from patent US20190336484A1, “IL-8 INHIBITORS FOR USE IN THE TREATMENT OF SOME UROLOGICAL DISORDERS” (DOMPÉ FARMACEUTICI S.P.A., priority 2017, published 2019).

Assays:
CXCR1/CXCR2 = settings: Bertini R. et al, Br J Pharmacol 2012; cited from earlier work
RWPE-1 cells = test: in vitro inflammatory model of prostatitis: ROS/RNS production (DCFH-DA assay) in RWPE-1 cells exposed to conditioned medium from activated U-937; type: cell-based, human; settings: then CM from activated U-937, measured after 3 hours
Excerpt: Characterization of Compound 1 on an in vitro inflammatory model of prostatitis.
In the aim of characterizing the Compound 1 on an in vitro inflammatory prostatitis model, human prostatic normal cells RWPE-1 (ATCC, lot number 61840713) are put in communication with activated macrophages; thus it induces an inflammatory micro-environment that enhances the production of reactive oxygen and nitrogen species (Debelec-Butuner et al, Mol. Carcinogen. 2014, 53:85-97).
Human U-937 monocytes (ATCC, lot number 61795631) seeded at 50.000 cells/ml were differentiated with phorbol acetate ([…]) for 16 h. In order to stimulate cytokines production, lipopolysaccharide (LPS) was added (10 ng/ml for 24 h) and the conditioned medium (CM) collected.
After 24 h in culture, RWPE-1 cells were treated with Compound 1 (0.1, 1 and 10 μM) and then exposed to CM from activated U-937. After 3 hours, reactive oxygen species (ROS) and Reactive Nitrogen species (RNS) were quantitatively measured by means of 2′,7′-dichlorodihydrofluorescein diacetate (DCFH-DA) assay. […] DCF is a highly fluorescent compound which can be detected by fluorescence spectroscopy with maximum excitation and emission spectra of 495 nm and 529 nm respectively (Games et al, J. Biochem. Biophys. Methods 2005, 65:45-80).

[1] = test system: testosterone-induced prostate hypertrophy (TBPH); test: Testosterone-induced prostate hypertrophy (TBPH), cystometry / urodynamic parameters; type: in vivo, Sprague-Dawley male rats; settings: 20 mg/kg oral twice daily, 5 days a week, 4 weeks
Excerpt: The study was undertaken to test the effects of chronic oral administration of Compound 1 in rats with dysfunctional bladders in an experimental model of TBPH involving an estrogen-associated inflammation (Tatemichi et al, J Urol 2006, 176:1236-1241).
(§1) A total 26 Sprague-Dawley male rats (250-270 g) were used for the study, according to the regulations of the Animal Ethics Committee (IACUC n.631). The rats were maintained under standard laboratory conditions at 12:12 light/dark cycle with free access to food pellets and tap water.
BPH was induced treating animals once a week for 4 weeks with intramuscular hormones corresponding to testosterone enanthate (Geymonat, 12.5 mg)+17β-estradiol-velerate (SIGMA, 0.125 mg) in sesame oil. […]
The conscious rats were placed in metabolic cages without restraint and the bladder catheters were connected via a T-tube to a pressure transducer (P23 DC; Statham Instruments Inc., Oxnard, Calif., USA) and a microinjection pump (CMA 100; Carnegie Medicine Aft Solna, Sweden). Micturition volumes were recorded with a fluid collector connected to a force displacement transducer (FT 03 D, Grass Instrument Co., Quincy, Mass., USA). […] Pressures and micturition volumes were recorded continuously with Acq Knowledge 3.8.1 software and a MP100 data acquisition system (Biopac Syst. Inc. Santa Barbara, Calif.) connected to a Grass polygraph (Model 7E, Grass Instrument Co).

pharmacokinetic profile = settings: in vivo
Excerpt: In fact, as it will be illustrated in the Experimental section, Compd.

[2] = test system: experimental autoimmune chronic prostatitis (EACP); test: Experimental autoimmune chronic prostatitis (EACP), mechanical allodynia by Von Frey test; type: in vivo, Lewis male rats; settings: 20 mg/kg oral twice daily
Excerpt: The experimental autoimmune chronic prostatitis (EACP) can be easily generated in rats by specific immunization with syngeneic rat prostate homogenate. As a consequence of the strong inflammatory reaction, pelvic pain is generated, as already described (Zhang et al, Scand J Immunol 2011, 73:546-553; Zhang et al, Prostate 2012, 72:90-99; Wang et al, Int Urol Nephrol 2015, 47:307-316; Rudick et al, Am J Physiol Regul Integr Comp Physiol 2008, 294:R1268-1275).
as §1, with “of 36 Lewis” for “26 Sprague-Dawley”, “g) from Charles River Italy” for “g)”
Each animal was initially immunized with 2 mg of syngeneic prostate protein, diluted in saline, emulsified with complete Freund adjuvant containing 2 mg/ml of H37a mycobacterium (BD). Emulsion was produced by vortexing the mix for 15 min or till obtaining appropriate viscosity. A total volume of 0.2 mL in two sites was injected into each anesthetized rat at the dorsal tail base. A booster immunization was then repeated 13 days after the first injection. […]
Effect of pelvic pain was evaluated 16 and 26 days after immunization by testing mechanical allodynia with Von Frey test. […]

Row | absorption (plasma) (pharmacokinetic profile) | SMILES | CXCR1/CXCR2 inhibitor character (CXCR1/CXCR2) | total ROS and RNS production induced by conditioned medium (CM) (RWPE-1 cells; Compound 1 at 1 μM) | total ROS and RNS production induced by conditioned medium (CM) (RWPE-1 cells; Compound 1 at 10 μM) | post void residual volume (PVR) ([1]; FIG. 4) | area under pressure/time curve (AUC, detrusor over activity) ([1]; FIG. 5) | mechanical hypersensitivity and allodynia (abdomen/pelvic withdrawal threshold, Von Frey) ([2]; day 16 and 26 after immunization, compared to vehicle) | applied force eliciting response in Von Frey test, fold higher ([2]; vehicle group stimulated by 19 g, FIG. 3)
1 |  | C[C@@H](C(=O)NS(C)(=O)=O)c1ccc(OS(=O)(=O)C(F)(F)F)cc1.[Na] [Compd.2, sodium salt of R(−)-2-[(4′-trifluoromethanesulfonyloxy)phenyl]-N-methanesulfonyl propionamide] | potent and selective dual CXCR1/CXCR2 non-competitive allosteric inhibitor |  |  |  |  |  | 
2 | rapid absorption | C[C@H](C(=O)[O-])c1ccc(Nc2nc(C(F)(F)F)cs2)cc1.[Na+] [Compound 1, sodium salt of (2S)-2-(4-{[4-(trifluoromethyl)-1,3-thiazol-2-yl]amino}phenyl) propanoic acid] |  | completely reverted the CM effect | more modest effect in comparison to the concentration 1 μM | numerical trend in reducing | numerical trend in reducing | partly decreased the mechanical hypersensitivity and allodynia reaching the statistical significance at day 26 | 2,8 fold
